Experimental findings from ChEMBL document CHEMBL4219053, “Antiobesity and emetic effects of a short-length peptide YY analog and its PEGylated and alkylated derivatives” (Bioorg Med Chem, 2018) are described below.

The term Tmax denotes the time from dosing to the highest level. Broadly, the Cmax is the maximum level reached in the sampled fluid or tissue. The term inhibition in vivo denotes the share of the control response that was lost under treatment. In general, IC50 refers to the point on the concentration scale where inhibition reaches its midpoint. As usually defined, the MRT is a mean duration of stay, worked out from the concentration-time curve. As usually defined, the AUC(0-t) is exposure summed from dosing to a finite time, without extrapolation to infinity.

The nature of series [1]: Tmax in Beagle dog at 0.01 mg/kg, sc. The series is classed as ADME, organism-based, Canis lupus familiaris. The following applies: in vivo.
Series [2] is described as follows: Cmax in dog at 0.01 mg/kg/day, sc administered as infusion after 8 hrs. Format: ADME, organism-based, Canis lupus familiaris. The arrangement: dose 0.01 mg/kg/day, route subcutaneous. The following applies: in vivo.
The nature of series [3]: Cmax in dog at 0.003 mg/kg/day, sc administered as infusion after 8 hrs. Details: dose 0.003 mg/kg/day, route subcutaneous. The series is classed as ADME, organism-based, Canis lupus familiaris. The note with it: in vivo.
Series [4] in a line: Cmax in Beagle dog at 0.01 mg/kg, sc. The series is classed as ADME, organism-based, Canis lupus familiaris. Details: dose 0.01 mg/kg, route subcutaneous. The following applies: in vivo.
The test system of series [5] is Canis familiaris. In words: Emetic effect in Beagle dog at 0.01 mg/kg, sc measured after 1 hr. Format: ADME, organism-based, Canis lupus familiaris. The following applies: in vivo.
Series [6] concerns Canis familiaris. In words: Emetic effect in Beagle dog at 0.01 mg/kg, sc measured after 1 to 24 hrs. The series is classed as organism-based, Canis lupus familiaris. The following applies: in vivo.
The nature of series [7]: Cmax in dog at 0.01 mg/kg, sc administered as bolus. The series is classed as ADME, organism-based, Canis lupus familiaris. Details: dose 0.01 mg/kg, route subcutaneous. The following applies: in vivo.
Series [8] is described as follows: Drug uptake in DIO C57BL/6J mouse serum at 0.01 mg/kg/day, sc for 2 weeks. The series is classed as ADME, organism-based. The note with it: read-out: Drug uptake.
The subject of series [9] is Canis familiaris. In words: Emetic effect in dog at 0.003 mg/kg/day, sc as infusion for 8 hrs. Format: ADME, organism-based, Canis lupus familiaris. The following applies: in vivo.
Series [10] has as its system Mus musculus. In words: Emetic effect in DIO C57BL/6J mouse at 0.01 mg/kg, sc for 2 weeks. The following applies: in vivo, 336 h. The series is classed as ADME, organism-based.
Series [11] can be described thus: Cmax in Beagle dog at 3 nmol/kg, sc. The series is classed as ADME, organism-based, Canis lupus familiaris. The arrangement: dose 3 nmol/kg, route subcutaneous. The following applies: in vivo.
Series [12] is described as follows: Cmax in C57BL/6J mouse at 10 nmol/kg, sc by LC-MS/MS analysis. Format: ADME, organism-based. The note with it: in vivo. Details: dose 10 nmol/kg, route subcutaneous.
Series [13] is described as follows: Tmax in C57BL/6J mouse at 10 nmol/kg, sc by LC-MS/MS analysis. Format: ADME, organism-based. The note with it: in vivo.
A short description of series [14]: Tmax in Beagle dog at 3 nmol/kg, sc. The series is classed as ADME, organism-based, Canis lupus familiaris. The following applies: in vivo.
For series [15], the system named is Mus musculus. In words: Anorectic activity in C57BL/6J mouse assessed as inhibition of food intake at 30 nmol/kg, sc qd for 3 days relative to control. The series is classed as functional. The note with it: 72 h.
Series [16] concerns Mus musculus. In words: Antiobesity activity in DIO C57BL/6J mouse assessed as reduction in body weight at 3 nmol/kg, sc qd for 2 weeks. Format: functional. The arrangement: scale not given: the % may be the effect or the level left.
For series [17], the target named is T1, Neuropeptide Y receptor type 2 (Homo sapiens, UniProt P49146).
T1 sequence (P49146 whole entry): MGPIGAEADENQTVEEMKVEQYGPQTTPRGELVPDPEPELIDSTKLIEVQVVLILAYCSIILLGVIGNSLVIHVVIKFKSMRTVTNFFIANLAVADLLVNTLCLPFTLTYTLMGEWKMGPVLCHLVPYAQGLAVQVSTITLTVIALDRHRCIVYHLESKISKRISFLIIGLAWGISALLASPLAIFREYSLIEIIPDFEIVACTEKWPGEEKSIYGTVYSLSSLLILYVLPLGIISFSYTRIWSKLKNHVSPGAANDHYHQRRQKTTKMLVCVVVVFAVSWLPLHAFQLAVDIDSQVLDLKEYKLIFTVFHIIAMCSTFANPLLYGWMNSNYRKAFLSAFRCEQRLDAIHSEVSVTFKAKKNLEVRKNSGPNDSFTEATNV
In words: Displacement of [125I]-PYY from human neuropeptide Y2 receptor expressed in CHO cell membranes incubated for 60 mins by TopCount micro scintillation analysis. Background: Loss of bound radioactivity is the signal in a displacement assay; it reports binding, not function.

The test system of series [18] is Mus musculus. In words: Antiobesity activity in DIO C57BL/6J mouse assessed as reduction in body weight at 10 nmol/kg, sc qd for 2 weeks. Format: functional. Details: scale not given: the % may be the effect or the level left.
Series [19] is described as follows: Mean residence time in C57BL/6J mouse at 10 nmol/kg, sc by LC-MS/MS analysis. The note with it: in vivo. Format: ADME, organism-based.
Series [20] can be described thus: AUC (0 to 48 hrs) in C57BL/6J mouse at 10 nmol/kg, sc by LC-MS/MS analysis. The arrangement: dose 10 nmol/kg, time < 48 hr, route subcutaneous. Format: ADME, organism-based. The following applies: in vivo.
The subject of series [21] is Mus musculus. In words: Antiobesity activity in DIO C57BL/6J mouse assessed as reduction in body weight at 30 nmol/kg, sc qd for 2 weeks. Details: scale not given: the % may be the effect or the level left. Format: functional.
A short description of series [22]: Solubility of the compound in water. The note with it: buffer. Format: physicochemical.
In series [23] the test system is Canis familiaris. In words: Emetic effect in Beagle dog at 3 nmol/kg, sc measured after 4 to 8 hrs. The series is classed as ADME, organism-based, Canis lupus familiaris. The note with it: in vivo.
In series [24] the test system is Canis familiaris. In words: Emetic effect in Beagle dog at 3 nmol/kg, sc measured up to 4 hrs. Format: ADME, organism-based, Canis lupus familiaris. The note with it: in vivo.

With `CC[C@](C)(NC(=O)[C@H]1C[C@H](O)CN1C(=O)[C@H](CO)NC(=O)c1c[nH]cn1)C(=O)N[C@@H](Cc1ccncc1)C(=O)N[C@@H](CC1CCCCC1)C(=O)N[C@@H](CC(C)(C)C)C(=O)N[C@@H](CC(N)=O)C(=O)N[C@@H](CCCCN)C(=O)NC(C)(C)C(=O)N[C@H](C(=O)N[C@@H](CCCNC(=N)N)C(=O)N[C@@H](CCC(N)=O)C(=O)N[C@@H](CCCNC(=N)N)C(=O)N[C@@H](CC1CCCCC1)C(N)=O)[C@@H](C)O`, in series [1], the Tmax is 0.6 h. In addition, the Cmax in series [2] turned out to be 0.74 ng/mL; in series [3] it was 0.18 ng/mL; in series [4], 2.9 ng/mL; in series [7], 2.9 ng/mL. Also, the Activity result with Canis familiaris [5] is “Toxic”; in the series on Canis familiaris [6], “Non-Toxic”; in the series with Canis familiaris [9], “Toxic”; with Mus musculus [10] it was “Toxic”. Also, in series [8], the concentration at 336 h was 0.225 ng/mL.

Consider `CCCCCCCCCCCCCCCC(=O)NC[C@H]1CC[C@H](C(=O)N[C@@H](CCC(=O)NCCCOCCOCCOCCCNC(=O)COCC(=O)N[C@@H](CO)C(=O)N2C[C@@H](O)C[C@@H]2C(=O)N[C@@H](CCCNC(=N)N)C(=O)N[C@@H](Cc2ccncc2)C(=O)N[C@@H](CC2CCCCC2)C(=O)NC(C)(C)C(=O)N[C@@H](CC(N)=O)C(=O)N[C@@H](CCCCNC(=O)C2CCNCC2)C(=O)NC(C)(C)C(=O)N[C@H](C(=O)N[C@@H](CCCNC(=N)N)C(=O)N[C@@H](CCC(N)=O)C(=O)N[C@@H](CCCNC(=N)N)C(=O)N[C@@H](CC2CCCCC2)C(N)=O)[C@@H](C)O)C(=O)O)CC1`, for which the Cmax in series [11] was determined as 0.9 nM; in series [12], 3.6 nM. Moreover, the Tmax in series [13] worked out at 1 h; in series [14], 2.5 h. In the series with Mus musculus [15], the inhibition in vivo at 0.03 µmol/kg stood at 68.3%. Also, the Activity is -18.4% with Mus musculus [16] and -19% in the series with Mus musculus [18]. Further, the IC50 in [17] stood at 0.19 nM. This compound also showed an MRT in series [19] of 1.7 h. Besides, in series [20], the AUC(0-t) at 48 h came out at 0.0122 µM·h.

For `C[C@@H](O)[C@H](NC(=O)C(C)(C)NC(=O)[C@H](CCCCNC(=O)[C@@H](N)CCCCNC(=O)COCC(=O)NCCCOCCOCCOCCCNC(=O)CC[C@H](NC(=O)[C@H]1CC[C@H](CNC(=O)CCCCCCCCCCCCCCCCCCC(=O)O)CC1)C(=O)O)NC(=O)[C@H](CC(N)=O)NC(=O)C(C)(C)NC(=O)[C@H](CC1CCCCC1)NC(=O)[C@H](Cc1ccncc1)NC(=O)[C@H](CCCNC(=N)N)NC(=O)[C@H]1C[C@H](O)CN1C(=O)[C@H](CO)NC(=O)c1c[nH]cn1)C(=O)N[C@@H](CCCNC(=N)N)C(=O)N[C@@H](CCC(N)=O)C(=O)N[C@@H](CCCNC(=N)N)C(=O)N[C@@H](CC1CCCCC1)C(N)=O`, the Cmax in series [11] was determined as 10.8 nM; in series [12], 32 nM. Further, the Activity was -20.7% in the series with Mus musculus [21]; -8% in the series with Mus musculus [16]; -16.5% in the series on Mus musculus [18]; “Toxic” in the series with Canis familiaris [23]; “Non-Toxic” with Canis familiaris [24]. Moreover, the Tmax in series [13] is 4 h; in series [14] it was 24 h. In series [22], the solubility result is reported as “Soluble”. In addition, in the series with Mus musculus [15], the inhibition in vivo at 0.03 µmol/kg came to 61%. In series [17], this compound registered a 50% inhibitory concentration (IC50) of 8 nM. The compound also yielded an MRT in [19] of 9.3 h. In series [20], this compound registered an AUC(0-t) at 48 h of 0.373 µM·h.
